Consider five substances from article PMC5613011, “Fenugreek Compound (N55) Lowers Plasma Glucose through the Enhancement of Response of Physiological Glucagon-like peptide-1” (Scientific Reports, 2017).

One assay relates to fasted mice. As to the kind of experiment: IPGTT, fasted mice (plasma glucose, glucose AUC0–120). In kind it is in vivo, Female C57BL/6 mice. An excerpt: All animal procedures were approved by the Institute of Biomedical Sciences Animal Care and Use Committee (Academia Sinica, Taiwan). The Experimental Animal Committee, Academia Sinica, Taiwan approved all animal experimental procedures. All animals were carefully looked after to ensure that their welfare were well looked after. Additionally, all the experimental procedures and the reagents used in this manuscript have been approved by The Ethic Committee, Academia Sinica. All methods were performed in accordance with the relevant guidelines and regulations by the Institute of Biomedical Sciences Animal Care and Use Committee (Academia Sinica, Taiwan) and The Ethic Committee (Academia Sinica, Taiwan). Female C57BL/6 mice (BioLAS CO, Yi-Lan Breeding Center, Taiwan) aged 8–12 weeks were housed on a 12-h light/12-h dark cycle and provided with food and water ad libitum. The mice were fed with the standard chow (PicoLab Rodent Diet 5053, LabDiet, St. Louis, MO, USA) diet which consisted of 13.2% fat, 24.7% protein, and 62.1% carbohydrates as a source of calories.
All experiments were performed at approximately 1 PM. For the fasted mice, standard chow was removed away at 9 AM on the day of the IPGTT, but were provided water ad libitum for 4 h prior to the beginning of the test. All the administered materials were dissolved in isotonic sodium chloride solution (0.9% sodium chloride) containing 5% ethanol. Vehicle, N55, GLP-1′, [Aib8, E22, E30]-GLP-1(7–36) amide, Ex-4 or Ex-9 alone or in combination were administered by i.p. injection 15 min before D-(+)-glucose (2 g/kg of body weight) i.p. administration. Blood samples were drawn from the tail vein right before glucose loading (time 0) and at 15, 30, 60, 90 and 120 min after glucose administration. Plasma glucose was monitored using a glucometer (Accu-Check Performa, Roche, Basel, Switzerland). Glucose AUC0–120 was calculated during the 120-min time interval from IPGTT results. Glucose AUC0–120 was obtained using the formula AUC0–120 = [15 × (G0 + G15)/2] + [15 × (G15 + G30)/2] + [30 × (G30 + G60)/2] + [30 × (G60 + G90)/2] + [30 × (G90 + G120)/2] where G0, G15, G30, G60, G90 and G120 were blood glucose level at each time point during IPGTT. The decrease in plasma glucose was calculated by subtracting the plasma glucose in the presence of indicated reagent from that in the absence of indicated reagent; ∆ Plasma Glucose (mmol/l) = [plasma glucose at 15 min point obtained in the absence of indicated reagent] − [plasma glucose at 15 min point obtained in the presence of indicated reagent]. The decreased in glucose AUC0–120 was expressed by subtracting the AUC0–120 in the presence of f indicated reagent rom that in the absence of indicated reagent. ∆ AUC0–120 (mmol/l x min) = [AUC0–120 in the absence of indicated reagent] − [AUC0–120 in the presence of indicated reagent].
(§1) Values for each experimental group are presented as mean ± SEM. Statistics were performed using Student’s t-test and one-way analysis of variance (ANOVA). Significance levels shown in the figures are: * P < 0.05, ** P < 0.01 and *** P < 0.001 as well as ^# P < 0.05, ^## P < 0.01 and ^### P < 0.001. A P-value of less than 0.05 was considered significant. Student’s t-test that is used to compare the means of two groups and one-way ANOVA is used to compare the means of more than two groups. Five mice per group were used for the in vivo studies. The in vivo studies were performed at least twice. The in vitro assays were triplicates of three independent experiments.

The test system of assay [1] is GLP-1R. In words: BRET / real-time intracellular cAMP response assay, GLP-1R. Type of assay: cell-based.
Description: Figure 7 Hypoglycemic action of [Aib8, E22, E30]-GLP-1(7–36) amide was not affected by N55. (a) Sequence alignment of GLP-1(7–36) amide, Ex-4 and mutant peptide. G22 and A30 (purple alphabets) are non-homologous residues between GLP-1(7–36) amide and Ex-4. These residues in GLP-1(7–36) amide were replaced with E (red alphabets), the corresponding residues (blue alphabets) in Ex-4, to generate DPP4-resistant GLP-1 mutant peptide ([Aib8, E22, E30]-GLP-1(7–36) amide). Effect of N55 on cAMP responses to the titration of (b) [Aib8, E22, E30]-GLP-1(7–36) amide and GLP-1′. Values are means ± SEM of triplicate assays from three independent experiments. Dose effect of [Aib8, E22, E30]-GLP-1(7–36) amide on (c) plasma glucose levels and on (d) glucose AUC0–120. Dose effect of N55 on (e) the hypoglycemic response and on (f) glucose AUC0–120 of 16.2 nmol/kg of [Aib8, E22, E30]-GLP-1(7–36) amide. Indicated doses of [Aib8, E22, E30]-GLP-1(7–36) amide and N55 were i.p. administered to group of fasted mice (n = 5) 15 min before the glucose loading (2 g/kg) of the IPGTT. Values are mean ± SEM for groups of five mice. * P < 0.05, ** P < 0.01 and *** P < 0.001 were comparisons of indicated dose of [Aib8, E22, E30]-GLP-1(7–36) amide vs control (c,d). NS, not significant.
The real-time intracellular cAMP assay was performed as previously described.
as §1
Background: In BRET a luciferase serves as donor, and the signal depends on an acceptor being close.

The test system of a further assay is mice. In words: Plasma insulin during IPGTT. In kind it is in vivo, Female C57BL/6 mice. An excerpt:
(§2) All animal procedures were approved by the Institute of Biomedical Sciences Animal Care and Use Committee (Academia Sinica, Taiwan). The Experimental Animal Committee, Academia Sinica, Taiwan approved all animal experimental procedures. All animals were carefully looked after to ensure that their welfare were well looked after. Additionally, all the experimental procedures and the reagents used in this manuscript have been approved by The Ethic Committee, Academia Sinica. […]
(§3) All experiments were performed at approximately 1 PM. […] Plasma glucose was monitored using a glucometer (Accu-Check Performa, Roche, Basel, Switzerland). Glucose AUC0–120 was calculated during the 120-min time interval from IPGTT results. […] The decrease in plasma glucose was calculated by subtracting the plasma glucose in the presence of indicated reagent from that in the absence of indicated reagent; ∆ Plasma Glucose (mmol/l) = [plasma glucose at 15 min point obtained in the absence of indicated reagent] − [plasma glucose at 15 min point obtained in the presence of indicated reagent]. […]
Blood samples were collected from the tail vein before any drug administration and at 15 and 60 min after i.p. glucose loading (time 0). […] Plasma insulin levels were determined by a mouse insulin enzyme-linked immunosorbent assay kit (10–1247–01, Mercodia, Sweden) according to the manufacturer’s protocols. […]

For assay [2], the system named is GLP-1R. As to conditions: cited from earlier work. The text has this: Firstly, the hypoglycemic effect of N55 during IPGTT of non-fasted mice requires functional GLP-1R signaling. Secondly, although N55 could not affect the plasma glucose in fasted mice whose endogenous GLP-1 are relatively low (Fig. 2a). […] Thirdly, the hypoglycemic effect and potentiation of insulinotropic effect of GLP-1 required the functional s ... || (+ 1 further places)

In a further assay the test system is non-fasted mice. In words: IPGTT, non-fasted mice (plasma glucose, glucose AUC0–120). Type of assay: in vivo, Female C57BL/6 mice. The following applies: Ex-9 without N55 (1530 without Ex-9), mean, n = 5.
Description: as §2, with “Sinica. All methods were performed in accordance with the relevant guidelines and regulations by the Institute of Biomedical Sciences Animal Care and Use Committee (Academia Sinica, Taiwan) and The Ethic Committee (Academia Sinica, Taiwan).” for “Sinica.”
as §3

[3] abbreviates: Ex-9 with GLP-1′ 5.4 nmol/kg, with or without N55, n = 5.

Consider “HAibEGTFTSDVSSYLEEQAAKEFIEWLVKGR-NH2 [[Aib8, E22, E30]-GLP-1(7–36) amide, DPP4-resistant GLP-1 mutant peptide]”, for which, in the assay on fasted mice (mutant peptide i.p., n = 5), the “glucose AUCs during IPGTT” value is reported as “decreased glucose AUCs” and the “plasma glucose during IPGTT” value is “dose-dependently lowered the plasma glucose”. Besides, the “response to N55 (cAMP)” value in the assay with GLP-1R [1] (titration of peptide with N55, triplicate assays from three independent experiments) is reported as “failed to respond to N55”. In addition, the “potency in stimulating GLP-1R (cAMP)” value with GLP-1R [1] (titration, compared with GLP-1′, triplicate assays from three independent experiments) is listed as “displayed comparable potency in stimulating GLP-1R”.

As for “HAibEGTFTSDVSSYLEGQAAKEFIAWLVKGR-NH2 [GLP-1′, [Aib8]-GLP-1(7–36) amide, DPP4-resistant GLP-1 peptide]”, the glucose tolerance entry is “did not affect the glucose tolerance at all” with fasted mice (GLP-1′ 0.2 nmol/kg alone i.p., n = 5) and “significantly improved the glucose tolerance” with fasted mice (GLP-1′ 5.4 nmol/kg i.p., n = 5). For the same substance, the “contribution to improvement of glucose excursion in presence of Ex-9” value with fasted mice (GLP-1′ 5.4 nmol/kg + Ex-9, without N55) is recorded as “non-detectable level”. The “15-min plasma glucose level” value in the assay on fasted mice (GLP-1′ 5.4 nmol/kg i.p. without N55, mean, n = 5) amounted to 18 mmol/L. Also, the “glucose excursion (AUC0–120)” value with fasted mice (GLP-1′ 5.4 nmol/kg i.p., n = 5) was “significantly improved”. In addition, the “contribution of GLP-1′ to improvement of glucose excursion (AUC0–120 with Ex-9 minus without Ex-9)” value in the assay with fasted mice (GLP-1′ 5.4 nmol/kg without N55) amounted to 250 mmol/l x min glucose. Besides, in the assay with fasted mice (GLP-1′ 5.4 nmol/kg without N55, without Ex-9), the “glucose AUC0–120” value is recorded as 1270 mmol/l x min glucose. In addition, in the assay on mice (fasted mice, GLP-1′ without N55, 15 min after glucose loading, mouse insulin ELISA, mean, n = 5), the “15-min plasma insulin level” value was determined as 1.44 µg/L.

For [E22, E30] GLP-1 (7–36) amide, in the assay with GLP-1R [1] (point mutant without Aib8), the “activation of receptor by point mutant of GLP-1” value is “retained ability to activate the receptor” and the “response of point mutant of GLP-1 to N55 in vitro” value is “not responsive to the enhancement of N55 in vitro”.

As for exendin-4 [Ex-4], the “glucose AUC0–120” value in the assay with fasted mice (Ex-4 5.4 nmol/kg i.p. (decreased from 1500), mean, n = 5) is 780 mmol/l x min glucose. Moreover, in the assay with fasted mice (Ex-4 i.p., n = 5), the “decrease in glucose level, dose dependence” value was “depended on the dose of Ex-4”; the “glucose AUCs, dose dependence” value is “decreased as dose of Ex-4 increased”; the glucose tolerance result is reported as “greatly improved the glucose tolerance”. Also, the “stimulation of GLP-1R in vitro by Ex-4” value in the assay with GLP-1R [2] is reported as “stimulated GLP-1R in vitro”.

Regarding exendin-(9–39) [Ex-9], in the assay with non-fasted mice, the “glucose AUC0–120” value turned out to be 2070 mmol/l x min glucose. Also, in the assay with fasted mice (setting [3]), the “effect of Ex-9 on GLP-1′ glucose lowering and N55 enhancement” value is “completely eliminated the glucose lowering effect of GLP-1′ and the enhancement effect of N55”; the “glucose AUC0–120 in all Ex-9 treated mice” value was approximately 1520 mmol/l x min glucose; the “plasma glucose level in Ex-9 treated mice” value amounted to 22 mmol/L. Further, in the assay with mice (15 and 60 min after glucose loading, Ex-9 treated non-fasted and fasted mice), the “plasma insulin level with Ex-9” value lay in the range of 0.36 to 0.65 µg/L.
